Reference: PMC7791840, “The R-enantiomer of ketorolac reduces ovarian cancer tumor burden in vivo” (BMC Cancer, 2021)
pIC50: −log10 of the molar value. Structures can show the parent of a compound that is named as a salt.

Columns and labels:
[1] = humans, multiple dosing regimens over 5 days; cited from earlier work
COX-1 = test system: COX-1; design: method as in PMID 26558612, PMID 10027870; conditions: cited from earlier work
Rac1 = test system: Rac1; design: method as in earlier work; conditions: cell-based assays, ovarian tumor cells; ref 23 (R-ketorolac), 27 (S-ketorolac); cited from earlier work
[2] = Toxicity assessment, blood chemistry after chronic treatment; format: in vivo; conditions: tumor-bearing mice, 5 mg/kg/d, 25 days, Average ± SD
Protocol: For toxicity assessment studies at an increased R-ketorolac dose of 5 mg/kg/d, athymic nude female mice were purchased from Charles River Laboratory (Wilmington, MA, strain code 490). Mice were injected i.p. with 1 × 10^6 SKOV3ip-RLuc-GFP cells suspended in sterile saline. Xenografts were established until tumors reached a bioluminescence imaging (BLI) value of ~ 3 × 10^8 radiance (IVIS SpectrumCT, PerkinElmer, Waltham MA). Mice were conditioned to placebo pills once a day for no less than 3 days during xenograft growth, then randomized to receive placebo or 5 mg/kg/d R-ketorolac for 25 days. Blood was collected via cardiac puncture and 0.2–0.4 mL was added to Lithium Heparin tubes (BD Microtainer, Ref #365965). Samples were mixed thoroughly immediately after filling the tube by gently inverting the tube by hand. Samples were kept and analyzed at room temperature within 60 min of collection. For each sample analysis 100 μl of blood was added to Abaxis Comprehensive Diagnostic Profile cassette (Abaxis, Inc. Union City, CA Ref. # 500–0038-24) and values obtained using Abaxis VetScan2 analyzer.

COX-2 = test system: COX-2; design: method as in PMID 26558612, PMID 10027870; conditions: cited from earlier work
Cdc42 = test system: Cdc42; design: method as in earlier work; conditions: cell-based assays, ovarian tumor cells; ref 23 (R-ketorolac), 27 (S-ketorolac); cited from earlier work
[3] = design: method as in PMID 8809637; conditions: single dose oral administration of R-ketorolac; cited from earlier work
[4] = ROS model for points below limit of detection

O=C(c1ccccc1)c1ccc2n1CCC2C(=O)O (centres unmarked) [R−/S-ketorolac, ketorolac tromethamine salt]
Accumulation of enantiomers with multiple dosing [1]: did not result in accumulation of either enantiomer

O=C(c1ccccc1)c1ccc2n1CC[C@H]2C(=O)O [R-ketorolac]
pIC50 (COX-1): < 4.00
pIC50 (Rac1): 6.24
Alanine aminotransferase [2]: 32.30 ± 11.35 U/L
Albumin [2]: 4.05 ± 0.40 g/dL
Amylase [2]: 1069 ± 264 U/L
Blood Urea Nitrogen [2]: 16.4 ± 2.59 mg/dL
Calcium [2]: 11.58 ± 0.79 mg/dL
Globulin [2]: 1.77 ± 0.43 g/dL
Glucose [2]: 287.7 ± 81.31 mg/dL
Mouse Weight [2]: 23.67 ± 1.30 g
Phosphorus [2]: 9.86 ± 1.90 mg/dL
Sodium [2]: 151.3 ± 4.11 mmol/L
Total Bilirubin [2]: 0.26 ± 0.05 mg/dL
Total Protein [2]: 5.79 ± 0.34 g/dL
Alkaline phosphatase [2, 4]: 28.97 ± 18.75 U/L
Creatinin [2, 4]: 0.24 ± 0.13 mg/dL
pIC50 (COX-2): < 4.00
pIC50 (Cdc42): 5.97
Maximal peak serum concentration [3]: 2.48 µg/mL
